Experimental data from patent publication US20250242032A1, “AGGREGATE FORMED BY MEANS OF ASSEMBLING CHALCOGEN HETEROCYCLIC COMPOUND AND INSULIN, AND PREPARATION METHOD THEREFOR, AND INSULIN ORAL PREPARATION” (FUZHOU UNIVERSITY, priority 2021, published 2025).

Assays:
diabetic model mice [1] = test: Blood glucose of diabetic model mice after oral administration of aggregate suspension; type: in vivo, C57BL/6J mice
Procedure: Change in blood glucose level of diabetic model mice after administered orally with the aggregate of insulin and chalcogen heterocyclic compound (1) Streptozotocin (STZ) was intraperitoneally injected into 6-8 week-old C57BL/6J mice for five consecutive days to induce pancreatic islet B-cell damage. On the 17th day after the first injection, the blood glucose concentration of the mice was measured, and the diabetic mouse model was considered to be successfully established when the blood glucose concentration was higher than 300 mg/dL. (2) After the diabetic model mice were orally administered with a suspension of the above aggregate at an amount of insulin of 80 U/kg, blood was collected from the tail vein of the mice at different time points to monitor the change in blood glucose. In control experiment 1, an equal amount of free insulin was administered orally to the diabetic model mice. In control experiment 2, an equal volume of physiological saline was administered orally to the diabetic model mice. In control experiment 3, insulin was injected subcutaneously to the diabetic model mice at 5 U/kg. Change in blood glucose level in diabetic model mice after administration of a suspension of the aggregate of insulin and chalcogen heterocyclic compound: The diabetic model mice were orally administered with a suspension of the aggregate 2 obtained above at an amount of insulin of 50 U/kg, and then the blood was collected from the tail vein of the mice at different time points to monitor the change in blood glucose concentration. In control experiment 1, an equal volume of physiological saline was administered orally to the diabetic model mice, and in control experiment 2, insulin was injected subcutaneously to the diabetic model mice at 5 U/kg. Change in blood glucose level in diabetic model mice after administration of a suspension of the aggregate of insulin and chalcogen heterocyclic compound: The diabetic model mice were orally administered with a suspension of the above aggregate 3 at an amount of insulin of 50 U/kg. […]

diabetic model mice [2] = test: Blood glucose of diabetic model mice after oral administration of enteric-coated capsule loading lyophilized aggregate; type: in vivo, C57BL/6J mice
Procedure: (1) Streptozotocin (STZ) was intraperitoneally injected into 6-8 week-old C57BL/6J mice for five consecutive days to induce pancreatic islet B-cell damage. On the 17th day after the first injection, the blood glucose concentration of the mice was measured, and the diabetic mouse model was considered to be successfully established when the blood glucose concentration was higher than 300 mg/dL. (2) After the diabetic model mice were orally administered with a suspension of the above aggregate at an amount of insulin of 80 U/kg, blood was collected from the tail vein of the mice at different time points to monitor the change in blood glucose. In control experiment 1, an equal amount of free insulin was administered orally to the diabetic model mice. In control experiment 2, an equal volume of physiological saline was administered orally to the diabetic model mice. In control experiment 3, insulin was injected subcutaneously to the diabetic model mice at 5 U/kg. Change in blood glucose level of diabetic model mice after orally administered with an enteric-coated capsule loading the aggregate of insulin and chalcogen heterocyclic compound (1) The aggregate was prepared into a lyophilized powder and loaded in an enteric-coated capsule. In control experiment 1, an equal amount of free insulin was loaded in an enteric-coated capsule. (2) A diabetic mice model was established according to the method as above. The mice were administered with recombinant insulin at an amount of 20 U/kg, after which the blood was taken from the tail vein of the mice at different time points to monitor the change in blood glucose concentration. In control experiment 2, insulin was injected subcutaneously to the diabetic model mice at 5 U/kg.

diabetic model pigs = test: Blood glucose of diabetic model pigs after oral administration of enteric-coated capsule loading lyophilized aggregate; type: in vivo, Bama mini-pigs; conditions: oral enteric-coated capsule loading free insulin, 20 U/kg
Procedure: Change in blood glucose level of diabetic model pigs after orally administered with an enteric-coated capsule loading the aggregate of insulin and chalcogen heterocyclic compound (1) Streptozotocin (STZ, with a concentration of 75 mg/mL) was infused intravenously to 4-month-old Bama mini-pigs at 150 mg/kg to induce pancreatic islet B-cell damage. On the 7th day after the first infusion, the blood glucose concentration of the pigs was measured, and the diabetic pig model was considered to be successfully established when the blood glucose concentration was higher than 300 mg/dL. (2) The aggregate was prepared into a lyophilized powder and loaded in an enteric-coated capsule. In control experiment 1, an equal amount of free insulin was loaded in an enteric-coated capsule. (3) The diabetic model pigs were administered with recombinant insulin at an amount of 20 U/kg, after which the blood was taken from the jugular vein of the pigs at different time points to monitor the change in blood glucose concentration. (4) The diabetic model pigs were given normal food at the 3rd and 8th hour after administration, and the food bowl was removed after 15 minutes.

Caco-2 cells = test: Trans-epithelial electrical resistance (TEER), integrity of epithelial cell layer; type: cell-based, human; conditions: Caco-2 monolayer, monitored for 12 hours
Procedure: Transcellular transport of the aggregate of insulin and chalcogen heterocyclic compound in intestinal model in vitro and integrity of epithelial cell layer
(1) Caco-2 cells were plated in a 24-well Transwell chamber and cultured for 21 days. […] (2) The aggregate was added to the upper Transwell chamber at 20 μg/mL, the concentration of insulin in the liquid in the lower Transwell chamber was detected every 1 hour, and the TEER was monitored continuously for 12 hours.

[3] = subcutaneous injection 5 U/kg, 15 minutes after injection
[4] = subcutaneous injection 5 U/kg, within 15-180 minutes

| Compound | reduction in blood glucose concentration (diabetic model mice [1]; oral, equal amount of free insulin (80 U/kg)) | reduction in blood glucose concentration (diabetic model mice [1]; [3]) | reduction of blood glucose concentration (diabetic model mice [1]; [4]) | reduction in blood glucose concentration (diabetic model mice [2]; oral enteric-coated capsule loading free insulin, 20 U/kg) | reduction in blood glucose (diabetic model mice [2]; [3]) | reduction of blood glucose concentration (diabetic model mice [2]; [4]) | reduction in blood glucose concentration (diabetic model pigs) | change in TEER (Caco-2 cells) |
| --- | --- | --- | --- | --- | --- | --- | --- | --- |
| free insulin: human recombinant insulin, used unencapsulated as oral control or subcutaneous injection control | little reduction | significant reduction | 30-50% | little reduction | significant reduction | 30-50% | little reduction |  |
| CCCCCCCCCC(=O)[O-].[Na+] [sodium caprate] |  |  |  |  |  |  |  | drastically reduced |
